Measured values reported in patent EP3689361A1, “APPLICATION OF CRANBERRY OR EXTRACT THEREOF IN PREPARATION OF MEDICATIONS OR HEALTH-CARE FOOD FOR TREATING, DELAYING OR ALLEVIATING AGES-RELATED DISEASES” (BY-Health Co., Ltd., priority 2018, dated 2020).

System: AGEs production (BSA + Methylglyoxal)
Assay: Inhibition of AGEs production: co-incubation with BSA and MGO, fluorescence read-out
Type: biochemical
Details: Compound concentration 1mg/mL
Description: Bovine serum albumin (BSA) can interact with Methylglyoxal (MGO) to produce AGEs. The compound to be tested was co-incubated with BSA and MGO, and the level of the AGEs production was determined through detecting change of fluorescence value in the system, to thereby evaluate whether or not the compound had inhibitory effect on the AGEs production. […]
With reference to the method of Test Example 1, the inhibitory effect of the AGEs inhibitory compositions of Examples 1-3 on AGEs production was examined. The test results were as follows: Table 13 Inhibitory effect of the AGEs inhibitory compositions on AGEs production

Compound | AGEs production inhibition rate % (Table 1, bilberry extracts with different anthocyanin contents) | AGEs production inhibition rate % (Table 9, 7 samples)
N=C(N)NN [Aminoguanidine] | 101.1% | 101.1%
Cc1ncc(C[n+]2csc(CCO)c2C)c(N)n1 [Vitamin B1] | – | 87.3%
Cc1cc2nc3c(=O)[nH]c(=O)nc-3n(C[C@H](O)[C@H](O)[C@H](O)CO)c2cc1C [Vitamin B2] | – | 94.3%
Cc1ncc(CO)c(CO)c1O.Cl [Vitamin B6] | – | 77.6%
